Laboratory results reported in patent US8476023B2, “Methods relating to aromatase inhibitor pharmacogenetics” (The Penn State Research Foundation, priority 2009, dated 2013).

Assays:
UGT1A8 = target: T1, UGT1A8 (Homo sapiens, UniProt Q9HAW9); assay: Glucuronidation assay, UGT1A8-overexpressing HEK293 cell homogenate; format: in vitro ADME; conditions: up to 600 μM substrate
T1 construct: expressed in transfected cells; host or cells: HEK293
T1 sequence (Q9HAW9 26-530): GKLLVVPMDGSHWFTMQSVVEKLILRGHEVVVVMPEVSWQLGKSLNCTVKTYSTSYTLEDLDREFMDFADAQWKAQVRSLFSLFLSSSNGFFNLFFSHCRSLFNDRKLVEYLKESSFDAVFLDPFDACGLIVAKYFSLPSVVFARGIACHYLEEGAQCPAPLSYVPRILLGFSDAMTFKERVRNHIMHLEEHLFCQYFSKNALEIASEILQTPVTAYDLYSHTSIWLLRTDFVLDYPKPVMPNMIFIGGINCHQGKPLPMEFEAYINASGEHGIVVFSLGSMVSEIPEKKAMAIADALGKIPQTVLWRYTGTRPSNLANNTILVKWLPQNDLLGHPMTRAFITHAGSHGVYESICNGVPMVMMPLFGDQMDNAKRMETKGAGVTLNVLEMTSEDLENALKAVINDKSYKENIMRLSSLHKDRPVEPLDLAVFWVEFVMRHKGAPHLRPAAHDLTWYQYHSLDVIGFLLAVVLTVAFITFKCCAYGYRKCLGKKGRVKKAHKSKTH

UGT1A4^24Pro/48Leu = target: T2, UGT1A4^24Pro/48Leu (Homo sapiens, UniProt P22310); assay: Glucuronidation assay, UGT1A4 24Pro/48Leu-overexpressing HEK293 cell homogenate; format: in vitro ADME; conditions: UGT 1A4 as worded in text; up to 600 μM substrate
T2 construct: expressed in transfected cells; host or cells: HEK293
T2 sequence (P22310 29-534): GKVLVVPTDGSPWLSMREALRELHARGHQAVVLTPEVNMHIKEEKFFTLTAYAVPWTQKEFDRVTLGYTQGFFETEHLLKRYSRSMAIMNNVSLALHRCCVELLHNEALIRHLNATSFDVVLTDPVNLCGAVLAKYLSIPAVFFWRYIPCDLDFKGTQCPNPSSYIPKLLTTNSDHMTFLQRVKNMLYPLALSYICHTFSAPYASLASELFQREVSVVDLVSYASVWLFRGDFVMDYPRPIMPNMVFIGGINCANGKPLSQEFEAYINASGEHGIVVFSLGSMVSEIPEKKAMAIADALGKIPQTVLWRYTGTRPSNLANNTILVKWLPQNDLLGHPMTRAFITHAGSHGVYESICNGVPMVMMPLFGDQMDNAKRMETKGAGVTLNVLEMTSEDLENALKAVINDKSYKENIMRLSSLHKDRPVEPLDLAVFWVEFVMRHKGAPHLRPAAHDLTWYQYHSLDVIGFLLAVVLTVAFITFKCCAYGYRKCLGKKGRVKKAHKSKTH

[1] = Kinetic analysis of glucuronidation by individual HLM from UGT2B17 (*1/*1) subjects; format: in vitro ADME, human; conditions: human, liver microsomes of UGT2B17 (*1/*1) subjects
[2] = test system: human liver microsomes (HLM), UGT2B17 (*1/*1) genotype; assay: as above; format: in vitro ADME; conditions: per mg HLM protein
[3] = test system: UGTs 1A1, 1A3, 1A6, 1A7, 1A9, 2B4, 2B7, 2B10, 2B11, 2B15; assay: Screening of the other UGT-overexpressing HEK293 cell homogenates for glucuronidation activity; format: in vitro ADME, human; conditions: other UGTs screened; up to 1 mg of UGT overexpressing cell homogenate
[4] = test system: human liver microsomes (HLM); assay: Rate of exemestane-17-O-glucuronide formation in a series of 110 HLM by UGT2B17 genotype; format: in vitro ADME; conditions: 9.4 μM 17-dihydroexemestane, p<0.001
[5] = test system: human liver microsomes (HLM), UGT2B17 (*2/*2) genotype; assay: Kinetic analysis of glucuronidation by individual HLM from UGT2B17 (*2/*2) subjects; format: in vitro ADME; conditions: per mg HLM protein
[6] = as above; format: in vitro ADME, human; conditions: human, liver microsomes of UGT2B17 (*2/*2) subjects
UGT1A4^24Thr/48Leu = assay: Glucuronidation assay, UGT1A4 24Thr/48Leu-overexpressing HEK293 cell homogenate; format: in vitro ADME, human; conditions: normalized per μg UGT protein by Western blot
UGT1A4 24Thr/48Leu = assay: as above; format: in vitro ADME, human; conditions: human, pH 7.4
UGT2B17 = target: T3, UGT2B17 (Homo sapiens, UniProt O75795); assay: Glucuronidation assay, UGT2B17-overexpressing HEK293 cell homogenate; format: in vitro ADME; conditions: UGT2B17; up to 600 μM substrate
T3 construct: expressed in transfected cells; host or cells: HEK293
T3 sequence (O75795 24-530): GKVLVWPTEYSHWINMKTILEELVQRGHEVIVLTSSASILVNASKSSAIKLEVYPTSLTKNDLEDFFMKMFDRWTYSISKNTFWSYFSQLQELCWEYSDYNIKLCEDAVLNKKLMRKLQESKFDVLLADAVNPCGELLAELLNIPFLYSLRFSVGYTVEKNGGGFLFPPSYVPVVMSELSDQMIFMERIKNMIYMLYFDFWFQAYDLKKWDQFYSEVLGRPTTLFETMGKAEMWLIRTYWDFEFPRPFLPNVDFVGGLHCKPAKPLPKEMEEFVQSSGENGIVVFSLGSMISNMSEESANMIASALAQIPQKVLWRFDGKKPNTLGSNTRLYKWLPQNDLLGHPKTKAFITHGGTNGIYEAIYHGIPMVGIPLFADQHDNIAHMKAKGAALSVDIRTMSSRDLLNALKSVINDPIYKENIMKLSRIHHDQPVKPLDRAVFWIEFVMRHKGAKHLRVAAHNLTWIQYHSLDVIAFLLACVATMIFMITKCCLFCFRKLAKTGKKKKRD

UGT1A10 = target: T4, UGT1A10 (Homo sapiens, UniProt Q9HAW8); assay: Glucuronidation assay, UGT1A10-overexpressing HEK293 cell homogenate; format: in vitro ADME; conditions: UGT1A10; up to 600 μM substrate
T4 construct: expressed in transfected cells; host or cells: HEK293
T4 sequence (Q9HAW8 26-530): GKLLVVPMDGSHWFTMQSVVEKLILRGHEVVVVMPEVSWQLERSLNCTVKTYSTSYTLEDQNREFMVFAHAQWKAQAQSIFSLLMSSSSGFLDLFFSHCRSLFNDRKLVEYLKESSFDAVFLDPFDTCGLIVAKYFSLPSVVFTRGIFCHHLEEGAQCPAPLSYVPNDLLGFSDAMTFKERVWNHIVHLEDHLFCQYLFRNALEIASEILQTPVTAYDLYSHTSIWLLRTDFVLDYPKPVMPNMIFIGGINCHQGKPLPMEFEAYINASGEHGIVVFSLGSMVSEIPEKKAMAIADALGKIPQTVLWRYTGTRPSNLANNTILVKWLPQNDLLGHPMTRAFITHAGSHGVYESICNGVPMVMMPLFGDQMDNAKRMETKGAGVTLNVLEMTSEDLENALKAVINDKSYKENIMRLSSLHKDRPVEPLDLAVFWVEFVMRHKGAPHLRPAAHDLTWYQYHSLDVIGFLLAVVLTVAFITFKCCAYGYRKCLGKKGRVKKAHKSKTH

C=C1C[C@@H]2[C@H](CC[C@]3(C)C(O)CC[C@@H]23)[C@@]2(C)C=CC(=O)C=C12 (stereo partly shown) [17-dihydroexemestane]
glucuronidation activity in UGT screen (UGT1A8): detectable activity
glucuronidation activity in UGT screen (UGT1A4^24Pro/48Leu): detectable activity
Km at 60 min ([1]; pH 7.4, HLM # 972, UGT2B17 (*1/*1), read-out: KM): 10.6 µM
Km at 60 min ([1]; pH 7.4, HLM # 1183, UGT2B17 (*1/*1), read-out: KM): 7.2 µM
Km at 60 min ([1]; pH 7.4, HLM # 1392, UGT2B17 (*1/*1), read-out: KM): 7.1 µM
Km at 60 min ([1]; pH 7.4, HLM # 2412, UGT2B17 (*1/*1), read-out: KM): 6.7 µM
Km at 60 min ([1]; pH 7.4, mean of five UGT2B17 (*1/*1) HLM, read-out: KM, mean ± S.D.): 7.3 ± 2 µM
Vmax ([2]; HLM # 972, UGT2B17 (*1/*1)): 51.6 pmol/min/mg
Vmax ([2]; HLM # 1183, UGT2B17 (*1/*1)): 322 pmol/min/mg
Vmax ([2]; HLM # 1392, UGT2B17 (*1/*1)): 393 pmol/min/mg
Vmax ([2]; HLM # 2167, UGT2B17 (*1/*1)): 38.9 pmol/min/mg
Vmax ([2]; HLM # 2412, UGT2B17 (*1/*1)): 213 pmol/min/mg
Vmax, mean ± S.D. ([2]; mean of five UGT2B17 (*1/*1) HLM): 204 ± 158 pmol/min/mg
glucuronidation activity in UGT screen [3]: None of the other UGTs screened in assays described herein exhibited any glucuronidation activity
decrease in glucuronidation activity in HLM (*2/*2) compared with HLM (*1/*1) [4]: 14 fold
Vmax ([5]; HLM # 383, UGT2B17 (*2/*2)): 17.0 pmol/min/mg
Vmax ([5]; HLM # 416, UGT2B17 (*2/*2)): 5.6 pmol/min/mg
Vmax ([5]; HLM # 2174, UGT2B17 (*2/*2)): 13.0 pmol/min/mg
Vmax ([5]; HLM # 2175, UGT2B17 (*2/*2)): 2.3 pmol/min/mg
Vmax ([5]; HLM # 3873, UGT2B17 (*2/*2)): 8.1 pmol/min/mg
Vmax, mean ± S.D. ([5]; mean of five UGT2B17 (*2/*2) HLM): 9.2 ± 5.9 pmol/min/mg
Km at 60 min ([6]; pH 7.4, HLM # 383, UGT2B17 (*2/*2), read-out: KM): 9.3 µM
Km at 60 min ([6]; pH 7.4, HLM # 416, UGT2B17 (*2/*2), read-out: KM): 17 µM
Km at 60 min ([6]; pH 7.4, HLM # 2174, UGT2B17 (*2/*2), read-out: KM): 12.4 µM
Km at 60 min ([6]; pH 7.4, HLM # 2175, UGT2B17 (*2/*2), read-out: KM): 13 µM
Km at 60 min ([6]; pH 7.4, HLM # 3873, UGT2B17 (*2/*2), read-out: KM): 11 µM
Km at 60 min ([6]; pH 7.4, mean of five UGT2B17 (*2/*2) HLM, read-out: KM, mean ± S.D.): 12.8 ± 3 µM
Vmax (UGT1A4^24Thr/48Leu): 0.26 ± 0.04 pmol · min^−1 · μg UGT protein^−1
Km at 60 min (UGT1A4 24Thr/48Leu): 28 ± 7.8 µM
glucuronidation activity in UGT screen (UGT2B17): detectable activity
glucuronidation activity in UGT screen (UGT1A10): detectable activity
